From ChEMBL document CHEMBL1221382, “N,O-diacyl-4-benzoyl-N-phenylhydroxylamines as photoinduced DNA cleaving agents” (Bioorg Med Chem Lett, 2010)

Columns and labels:
Assay type in all cases: nucleic-acid assay
Nucleic Acid [1] = assay: Induction of DNA cleavage activity in Escherichia coli pBR322 assessed as relaxed circular form after 10 mins by gel electrophoresis in presence of UV light; parameters: concentration or dose not given beside the values
Nucleic Acid [2] = assay: Induction of DNA cleavage activity in Escherichia coli pBR322 assessed as supercoiled circular form after 10 mins by gel electrophoresis in presence of UV light; parameters: concentration or dose not given beside the values
Nucleic Acid [3] = assay: Induction of DNA cleavage activity in Escherichia coli pBR322 assessed as relaxed circular form after 10 mins by gel electrophoresis in presence of 0.1 M NaN3 solution; parameters: scale not given: the % may be the effect or the level left
Nucleic Acid [4] = assay: Ratio of relaxed circular form of Escherichia coli pBR322 to supercoiled circular form of Escherichia coli pBR322 in presence of 0.1 M NaN3 solution
Nucleic Acid [5] = assay: Induction of DNA cleavage activity in Escherichia coli pBR322 assessed as relaxed circular form after 10 mins by gel electrophoresis in presence of bubbling with argon gas; parameters: scale not given: the % may be the effect or the level left
Nucleic Acid [6] = assay: Ratio of relaxed circular form of Escherichia coli pBR322 to supercoiled circular form of Escherichia coli pBR322 in presence of ascorbic acid
Nucleic Acid [7] = assay: Induction of DNA cleavage activity in Escherichia coli pBR322 assessed as supercoiled circular form after 10 mins by gel electrophoresis in presence of bubbling with argon gas
Nucleic Acid [8] = assay: Ratio of relaxed circular form of Escherichia coli pBR322 to supercoiled circular form of Escherichia coli pBR322 in presence of bubbling with argon gas
Nucleic Acid [9] = assay: Induction of DNA cleavage activity in Escherichia coli pBR322 assessed as supercoiled circular form after 10 mins by gel electrophoresis in absence of UV light
Nucleic Acid [10] = assay: Induction of DNA cleavage activity in Escherichia coli pBR322 assessed as relaxed circular form after 10 mins by gel electrophoresis in absence of UV light; parameters: scale not given: the % may be the effect or the level left
Nucleic Acid [11] = assay: Induction of DNA cleavage activity in Escherichia coli pBR322 assessed as supercoiled circular form after 10 mins by gel electrophoresis in presence of 0.1 M NaN3 solution
Nucleic Acid [12] = assay: Induction of DNA cleavage activity in Escherichia coli pBR322 assessed as supercoiled circular form after 10 mins by gel electrophoresis in presence of ascorbic acid
Nucleic Acid [13] = assay: Induction of DNA cleavage activity in Escherichia coli pBR322 assessed as relaxed circular form after 10 mins by gel electrophoresis in presence of ascorbic acid; parameters: scale not given: the % may be the effect or the level left
Nucleic Acid [14] = assay: Ratio of relaxed circular form of Escherichia coli pBR322 to supercoiled circular form of Escherichia coli pBR322 in absence of UV light

Compound	Activity (Nucleic Acid [1]) [%]	Activity (Nucleic Acid [2]) [%]	other results
O=C(ON(C(=O)c1ccccc1)c1ccc(C(=O)c2ccccc2)cc1)c1ccc(F)cc1	62.9	37.1	–
COc1ccc(C(=O)ON(C(=O)c2ccccc2)c2ccc(C(=O)c3ccccc3)cc2)cc1OC	88.8	11.2	–
O=C(ON(C(=O)c1ccc(F)cc1)c1ccc(C(=O)c2ccccc2)cc1)c1ccccc1	40.8	59.2	–
CC(=O)N(OC(=O)c1ccccc1)c1ccc(C(=O)c2ccccc2)cc1	92.2	7.83	–
O=C(ON(C(=O)c1ccccc1)c1ccc(C(=O)c2ccccc2)cc1)c1ccc(Cl)cc1	35	65	–
O=C(ON(C(=O)c1ccc([N+](=O)[O-])cc1)c1ccc(C(=O)c2ccccc2)cc1)c1ccccc1	36.3	63.7	–
COc1ccc(C(=O)N(OC(=O)c2ccccc2)c2ccc(C(=O)c3ccccc3)cc2)cc1OC	77.1	22.9	–
O=C(ON(C(=O)c1ccccc1)c1ccc(C(=O)c2ccccc2)cc1)c1ccccc1	86.8	13.2	–
CC(=O)ON(C(=O)c1ccccc1)c1ccc(C(=O)c2ccccc2)cc1	73.9	25.6	Activity (Nucleic Acid [3]): 76%; Ratio (Nucleic Acid [4]): 3.18; Activity (Nucleic Acid [5]): 73%; Ratio (Nucleic Acid [6]): 0.31; Activity (Nucleic Acid [7]): 26.1%; Ratio (Nucleic Acid [8]): 2.79; Activity (Nucleic Acid [9]): 83.7%; Activity (Nucleic Acid [10]): 16.3%; Activity (Nucleic Acid [11]): 24.1%; Activity (Nucleic Acid [12]): 76.6%; Activity (Nucleic Acid [13]): 23.4%; Ratio (Nucleic Acid [14]): 0.19
O=C(ON(C(=O)c1ccccc1)c1ccc(C(=O)c2ccccc2)cc1)c1ccc([N+](=O)[O-])cc1	43.4	56.6	–
